The target of assay [1] is T1, human Gcg receptor (Homo sapiens, UniProt P47871).
T1 construct: expressed in transfected cells; crude membranes
Briefly: [125I]-Glucagon binding (SPA), human Gcg receptor. Particulars: read-out: hGLcgR Ki, nM (SEM, n). The method in brief:
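Crude membranes from cells expressing the receptor, prepared by hypotonic lysis in 50 mM Tris HCl pH 7.5 with protease inhibitors, homogenization and differential centrifugation, were used in a WGA-bead SPA. Binding buffer: 25 mM HEPES pH 7.4, 2.5 mM CaCl2, 1 mM MgCl2, bacitracin, Tween-20.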

The target in assay [2] is T2, human GLP-1R (Homo sapiens, UniProt P43220). Briefly: [125I]-GLP-1 binding (SPA), human GLP-1 receptor. Set-up: expressed in transfected cells; crude membranes. Particulars: read-out: hGLP1R Ki, (nM) (SEM, n). The method in brief:
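Ki values are geometric means with SEM over independent replicates on different days, derived from IC50s fitted by four-parameter nonlinear regression. The assay used crude cell membranes in HEPES buffer, pH 7.4, containing CaCl2, MgCl2, bacitracin and TWEEN-20.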

The target of assay [3] is T3, human GIP receptor (Homo sapiens, UniProt P48546).
T3 construct: expressed in transfected cells; crude membranes
T3 sequence (P48546 22-466): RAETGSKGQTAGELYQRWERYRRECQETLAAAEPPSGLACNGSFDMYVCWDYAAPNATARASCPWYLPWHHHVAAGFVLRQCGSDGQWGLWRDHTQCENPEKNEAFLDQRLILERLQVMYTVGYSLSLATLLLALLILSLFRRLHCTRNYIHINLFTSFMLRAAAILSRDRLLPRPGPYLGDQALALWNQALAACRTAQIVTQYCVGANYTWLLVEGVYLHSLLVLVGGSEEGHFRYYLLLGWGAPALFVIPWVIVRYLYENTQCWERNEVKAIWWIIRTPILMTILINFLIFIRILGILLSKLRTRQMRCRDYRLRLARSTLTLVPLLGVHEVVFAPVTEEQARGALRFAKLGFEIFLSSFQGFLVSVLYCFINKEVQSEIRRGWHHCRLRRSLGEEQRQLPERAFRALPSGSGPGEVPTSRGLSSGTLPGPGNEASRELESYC
Briefly: [125I]-GIP binding (SPA), human GIP receptor. Particulars: read-out: hGIPR Ki, nM (SEM, n).

Assay [4] addresses human GLP-1 receptor (GLP-1R) (Homo sapiens, UniProt P43220). Briefly: cAMP pharmacological functional assay in presence of casein, hGLP-1R. Particulars: HEK293 cells expressing hGLP-1R, 0.1% Casein, geometric mean; read-out: hGLP1R cAMP Rel EC50 nM (SEM, n). It is filed as cell-based.
In assay [5] the target is T2, human GLP-1R. The assay can be described thus: GLP-1R CHO cell β-arrestin recruitment assay. The assay is classed as cell-based. Details: host or cells: CHO-K1 PathHunter cells, assay-ready frozen. Particulars: for EC50: CHO-K1 cells, PathHunter β-arrestin-2 recruitment, 0.1% casein, read-out: hGLP1R B-Arrestin2 Rel EC50 uM (SEM, n); for hGLP1R B-Arrestin2 % Top: normalized to GLP-1 maximum control. The gist of the method:
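Peptide-induced β-arrestin-2 recruitment measured by enzyme-fragment complementation luminescence after 90 min at 37 °C plus 60 min detection at RT.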
Background: Activated receptors often draw arrestin, which recruitment assays turn into a signal.

For assay [6], the target named is T4, gastric inhibitory peptide receptor (GIPR) (Homo sapiens, UniProt P48546).
T4 sequence (P48546 22-466): T3 sequence (P48546 22-466)
Briefly: cAMP pharmacological functional assay in presence of casein, hGIPR. The assay is classed as cell-based. Particulars: HEK293 cells expressing hGIPR, 0.1% Casein, geometric mean; read-out: hGIPR cAMP Rel EC50 nM (SEM, n).

The target of assay [7] is T2, human GLP-1R. Briefly: GLP-1R HEK293 cell membrane [35S]GTPγS binding assay. Particulars: HEK293 cell membranes expressing human GLP-1R, [35S]GTPγS binding; read-out: hGLP1R GTPgS Rel EC50 nM (SEM, n). It is filed as biochemical. Details: expressed in transfected cells; host or cells: HEK293 cells expressing human GLP-1R; membranes. The method in brief: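 Agonist-driven Gαs activation read as [35S]GTPγS ([…]) binding to receptor-expressing HEK293 membranes, 30 min at room temperature, pH 7.4. Detection by anti-Gαs immunocapture on scintillation beads; EC50 derived from four-parameter logistic concentration-response fit.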

As usually defined, the Ki is the dissociation constant of the complex between target and ligand, obtained from inhibition or displacement. By EC50 is commonly meant the midpoint of the concentration-response curve.

Numbered stars: 1 amine (or outer) side, 2 acyl side, 3 side chain; on linkers, the order of the positions; unused ones are H or OH. Square brackets hold non-standard residues; d marks the D form. Side chains are listed from the residue outwards. Peptide text beside a SMILES is read from it. * marks the point of attachment. C20 diacid = O=C(O)CCCCCCCCCCCCCCCCCCC(=O)*; γGlu = O=C(O)[C@H](CCC(=O)[*:2])N[*:1]; αMeL = CC(C)C[C@](C)(N)C(=O)O; AEEA = NCCOCCOCC(=O)O; Aib = CC(C)(N)C(=O)O

T2 sequence (P43220 24-463): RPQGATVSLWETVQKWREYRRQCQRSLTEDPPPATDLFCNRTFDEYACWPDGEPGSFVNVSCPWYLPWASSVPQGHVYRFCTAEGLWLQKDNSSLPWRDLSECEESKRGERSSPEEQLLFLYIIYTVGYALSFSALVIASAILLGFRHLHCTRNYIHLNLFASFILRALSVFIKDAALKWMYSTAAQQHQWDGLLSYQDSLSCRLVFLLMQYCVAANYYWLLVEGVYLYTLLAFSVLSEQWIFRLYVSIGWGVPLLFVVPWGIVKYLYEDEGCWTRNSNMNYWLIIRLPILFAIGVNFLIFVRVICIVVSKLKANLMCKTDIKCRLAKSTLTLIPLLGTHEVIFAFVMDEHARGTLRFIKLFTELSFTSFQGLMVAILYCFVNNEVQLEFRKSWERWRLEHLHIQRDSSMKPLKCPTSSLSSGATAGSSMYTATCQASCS
Chain of human GLP-1 receptor (GLP-1R) (P43220 24-463): as above
T1 sequence (P47871 26-477): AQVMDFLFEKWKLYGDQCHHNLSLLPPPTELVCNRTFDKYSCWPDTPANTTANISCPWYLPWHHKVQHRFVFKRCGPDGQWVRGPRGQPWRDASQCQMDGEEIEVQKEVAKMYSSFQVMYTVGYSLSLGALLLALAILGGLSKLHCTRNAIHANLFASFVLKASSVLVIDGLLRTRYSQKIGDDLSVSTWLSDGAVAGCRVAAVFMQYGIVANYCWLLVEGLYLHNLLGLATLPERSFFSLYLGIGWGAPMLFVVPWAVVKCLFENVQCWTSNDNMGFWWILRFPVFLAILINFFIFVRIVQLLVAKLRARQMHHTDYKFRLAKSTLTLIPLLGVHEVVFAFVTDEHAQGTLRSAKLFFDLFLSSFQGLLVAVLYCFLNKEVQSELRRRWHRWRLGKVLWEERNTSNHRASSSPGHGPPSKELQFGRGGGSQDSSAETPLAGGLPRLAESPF

For `CC[C@H](C)[C@H](NC(=O)[C@H](CC(C)C)NC(=O)[C@H](Cc1ccc(O)cc1)NC(=O)[C@H](CCC(=O)O)NC(=O)[C@@H](NC(=O)[C@H](Cc1ccccc1)NC(=O)[C@H](C)NC(=O)C(C)(C)NC(=O)[C@H](CCC(N)=O)NC(=O)[C@H](C)NC(=O)[C@H](CCCCNC(=O)COCCOCCNC(=O)COCCOCCNC(=O)CC[C@H](NC(=O)CCCCCCCCCCCCCCCCCCC(=O)O)C(=O)O)NC(=O)[C@H](CCCCN)NC(=O)[C@H](CC(=O)O)NC(=O)[C@H](CC(C)C)NC(=O)[C@H](CC(C)C)NC(=O)[C@@H](NC(=O)[C@H](CO)NC(=O)[C@H](Cc1ccc(O)cc1)NC(=O)[C@H](CC(=O)O)NC(=O)[C@H](CO)NC(=O)[C@@H](NC(=O)[C@](C)(Cc1ccccc1)NC(=O)[C@@H](NC(=O)CNC(=O)[C@H](CCC(=O)O)NC(=O)C(C)(C)NC(=O)[C@H](N)Cc1ccc(O)cc1)[C@@H](C)O)[C@@H](C)O)[C@@H](C)CC)[C@@H](C)CC)C(=O)N[C@@H](CCC(=O)O)C(=O)NCC(=O)NCC(=O)N1CCC[C@H]1C(=O)N[C@@H](CO)C(=O)N[C@@H](CO)C(=O)NCC(=O)N[C@@H](C)C(=O)N1CCC[C@H]1C(=O)N1CCC[C@H]1C(=O)N1CCC[C@H]1C(=O)N[C@@H](CO)C(N)=O` [Example 329], the figures for the inhibitory constant (Ki) in assay [1], in assay [2] and in assay [3] were 17 nM, 3.28 nM and 0.0439 nM, respectively. Moreover, the concentration giving a half-maximal response (EC50) in assay [4] was determined as 0.125 nM; in assay [5], 0.00473 µM; in assay [6], 0.132 nM; in assay [7] it was 0.343 nM. Also, the “hGLP1R B-Arrestin2 % Top” value in assay [5] was 63.4%.

In the case of `CC[C@H](C)[C@H](NC(=O)[C@H](CC(C)C)NC(=O)[C@H](Cc1ccc(O)cc1)NC(=O)[C@H](CCC(=O)O)NC(=O)[C@@H](NC(=O)[C@H](Cc1ccccc1)NC(=O)[C@H](CCC(=O)O)NC(=O)C(C)(C)NC(=O)[C@H](CCC(N)=O)NC(=O)[C@H](C)NC(=O)[C@H](CCCCNC(=O)COCCOCCNC(=O)COCCOCCNC(=O)CC[C@H](NC(=O)CCCCCCCCCCCCCCCCCCC(=O)O)C(=O)O)NC(=O)[C@H](CCC(=O)O)NC(=O)[C@H](CC(=O)O)NC(=O)[C@H](CC(C)C)NC(=O)[C@](C)(CC(C)C)NC(=O)[C@@H](NC(=O)[C@H](CO)NC(=O)[C@H](Cc1ccc(O)cc1)NC(=O)[C@H](CC(=O)O)NC(=O)[C@H](CO)NC(=O)[C@@H](NC(=O)[C@H](Cc1ccccc1)NC(=O)[C@@H](NC(=O)CNC(=O)[C@H](CCC(=O)O)NC(=O)C(C)(C)NC(=O)[C@@H](N)Cc1ccc(O)cc1)[C@@H](C)O)[C@@H](C)O)[C@@H](C)CC)[C@@H](C)CC)C(=O)N[C@@H](C)C(=O)NCC(=O)NCC(=O)N1CCC[C@H]1C(=O)N[C@@H](CO)C(=O)N[C@@H](CO)C(=O)NCC(=O)N[C@@H](C)C(=O)N1CCC[C@H]1C(=O)N1CCC[C@H]1C(=O)N1CCC[C@H]1C(=O)N[C@@H](CO)C(N)=O` [Example 331] (H-Y[Aib]EGTFTSDYSI[αMeL]LDEK([AEEA-AEEA-γGlu-C20 diacid])AQ[Aib]EFIEYLIAGGPSSGAPPPS-NH2), the Ki in assay [1] is over 969 nM; in assay [2], 11.4 nM; in assay [3] it was 0.0851 nM. Moreover, the EC50 in assay [4] was found to be 0.0929 nM; in assay [5] it was 0.0128 µM; in assay [6], 0.0547 nM; in assay [7], 0.375 nM. Besides, the “hGLP1R B-Arrestin2 % Top” value in assay [5] came to 44.3%.

For the molecule `CC[C@H](C)[C@H](NC(=O)[C@H](CC(C)C)NC(=O)[C@H](Cc1ccc(O)cc1)NC(=O)[C@H](CCC(=O)O)NC(=O)[C@@H](NC(=O)[C@H](Cc1ccccc1)NC(=O)[C@H](C)NC(=O)C(C)(C)NC(=O)[C@H](CCC(N)=O)NC(=O)[C@H](C)NC(=O)[C@H](CCCCNC(=O)COCCOCCNC(=O)COCCOCCNC(=O)CC[C@H](NC(=O)CCCCCCCCCCCCCCCCCCC(=O)O)C(=O)O)NC(=O)[C@H](CCC(=O)O)NC(=O)[C@H](CC(=O)O)NC(=O)[C@H](CC(C)C)NC(=O)[C@](C)(CC(C)C)NC(=O)[C@@H](NC(=O)[C@H](CO)NC(=O)[C@H](Cc1ccc(O)cc1)NC(=O)[C@H](CC(=O)O)NC(=O)[C@H](CO)NC(=O)[C@@H](NC(=O)[C@H](Cc1ccccc1)NC(=O)[C@@H](NC(=O)CNC(=O)[C@H](CCC(=O)O)NC(=O)C(C)(C)NC(=O)[C@@H](N)Cc1ccc(O)cc1)[C@@H](C)O)[C@@H](C)O)[C@@H](C)CC)[C@@H](C)CC)C(=O)N[C@@H](C)C(=O)NCC(=O)NCC(=O)N1CCC[C@H]1C(=O)N[C@@H](CO)C(=O)N[C@@H](CO)C(=O)NCC(=O)N[C@@H](C)C(=O)N1CCC[C@H]1C(=O)N1CCC[C@H]1C(=O)N1CCC[C@H]1C(=O)N[C@@H](CO)C(N)=O` [Example 332] (H-Y[Aib]EGTFTSDYSI[αMeL]LDEK([AEEA-AEEA-γGlu-C20 diacid])AQ[Aib]AFIEYLIAGGPSSGAPPPS-NH2), the inhibition constant Ki in assay [1] stood at 397 nM; in assay [2], 7.87 nM; in assay [3], 0.0497 nM. The EC50 stood at 0.184 nM in assay [4], 0.0171 µM in assay [5], 0.0745 nM in assay [6] and 0.453 nM in assay [7]. Also, the “hGLP1R B-Arrestin2 % Top” value in assay [5] is listed as 45.6%.

In the case of `CC[C@H](C)[C@H](NC(=O)[C@H](CC(C)C)NC(=O)[C@H](Cc1ccc(O)cc1)NC(=O)[C@H](CCC(=O)O)NC(=O)[C@@H](NC(=O)[C@H](Cc1ccccc1)NC(=O)[C@H](CCC(=O)O)NC(=O)C(C)(C)NC(=O)[C@H](CCC(N)=O)NC(=O)[C@H](C)NC(=O)[C@H](CCCCNC(=O)COCCOCCNC(=O)COCCOCCNC(=O)CC[C@H](NC(=O)CCCCCCCCCCCCCCCCCCC(=O)O)C(=O)O)NC(=O)[C@H](CCCCN)NC(=O)[C@H](CC(=O)O)NC(=O)[C@H](CC(C)C)NC(=O)[C@](C)(CC(C)C)NC(=O)[C@@H](NC(=O)[C@H](CO)NC(=O)[C@H](Cc1ccc(O)cc1)NC(=O)[C@H](CC(=O)O)NC(=O)[C@H](CO)NC(=O)[C@@H](NC(=O)[C@H](Cc1ccccc1)NC(=O)[C@@H](NC(=O)CNC(=O)[C@H](CCC(=O)O)NC(=O)C(C)(C)NC(=O)[C@@H](N)Cc1ccc(O)cc1)[C@@H](C)O)[C@@H](C)O)[C@@H](C)CC)[C@@H](C)CC)C(=O)N[C@@H](CCC(=O)O)C(=O)NCC(=O)NCC(=O)N1CCC[C@H]1C(=O)N[C@@H](CO)C(=O)N[C@@H](CO)C(=O)NCC(=O)N[C@@H](C)C(=O)N1CCC[C@H]1C(=O)N1CCC[C@H]1C(=O)N1CCC[C@H]1C(=O)N[C@@H](CO)C(N)=O` [Example 333] (H-Y[Aib]EGTFTSDYSI[αMeL]LDKK([AEEA-AEEA-γGlu-C20 diacid])AQ[Aib]EFIEYLIEGGPSSGAPPPS-NH2), the Ki was found to be 578 nM in assay [1], 4.25 nM in assay [2] and 0.0634 nM in assay [3]. Moreover, the EC50 in assay [4] worked out at 0.131 nM; in assay [5], 0.0548 µM; in assay [6], 0.0492 nM; in assay [7], 0.442 nM. Moreover, the “hGLP1R B-Arrestin2 % Top” value in assay [5] stood at 58.2%.

Values taken from patent US12252524B2, “GIP/GLP1 co-agonist compounds” (Eli Lilly and Company, priority 2018, dated 2025).
